Experimental data reported in PubChem BioAssay AID2060899 (Molecular Pharmacology Branch, DTP, NCI, 2025).

Tested on: 565726-208-R1-J5-PDC complex spheroids, growth inhibition
Assay: Anticancer human tumor 565726-208-R1-J5-PDC patient-derived pancreatic adenocarcinoma cell line growth inhibition [RAS]
Settings: for IC50: curve of first compound; for viability, T/C: stronger effect = lower value
Text: RAS pathway inhibitors in Combinations in Complex Spheroids
A high-throughput screen of multi-cell type tumor spheroids was designed to identify active combinations of RAS pathway inhibitors and targeted small molecules. Complex spheroids include a stromal component modeled by human endothelial cells (HUVEC) and fibroblasts modeled by human mesenchymal stem cells (MSCs). The concentration ranges selected for each drug and investigational agent were based upon clinically achievable concentrations if the clinical Cmax of the agent was known.
Compounds. The drugs and investigational agents: abemaciclib (NSC768073), cobimetinib (NSC768068), divarasib (GDC6063, NSC841802), docetaxel (NSC628503), GDC-1971 (RLY-1971, NSC841576), gemcitabine (NSC613327), inavolisib (NSC800729), ipatasertib (NSC767898), KB-0742 (NSC834161), MRTX-1133 (NSC836407), osimertinib (NSC779217), RMC-4630 (NSC839698), RMC-6236 (NSC851965), RMC-6291 (NSC852671), Ro-3306 (NSC812927), sapanisertib (NSC764658), SN-38 (NSC673596), staurosporine (NSC755774), SY5609 (NSC837396), and tovorafenib (DAY101, NSC766906), were obtained from the National Cancer Institute (NCI) Developmental Therapeutics Program Chemical Repository. The FDA-approved anticancer drug set is available from the NCI Developmental Therapeutics Program. […] The stock solutions were prepared in dimethyl sulfoxide (DMSO, Sigma-Aldrich, St. Louis, MO, cat. D2650) at 800-fold the tested concentration and stored at -70 degrees C prior to their use. All drugs and investigational agents were tested over a range starting from a high concentration at or near the clinical Cmax and decreasing in half-log increments. If the clinical Cmax for an agent had not been determined, the highest concentration tested was 10 microM.
Cell Culture. All cells were maintained in an incubator at 37 degrees C and 5% CO2 with 95% humidity. The PDC lines were cultured according to standard operating procedures established by the NCI PDMR. All PDCs were thawed and cultured in Matrigel-coated flasks prepared with a working solution of 1X Ham's F-12 nutrient mix, without supplementation (Invitrogen, Waltham, MA, cat. 11765054), 100 U/mL penicillin-streptomycin (Invitrogen, cat. 15140122), and 2.5% Matrigel (Corning Inc., Corning, NY, cat. 354248) for the first three passages. The 362531-283-R-J2-PDC and 782815-120-R-J1-PDC lines were cultured in 6C/Colon 1B media, which includes advanced DMEM/F-12 (Thermo Fisher Scientific, cat. 12634028), 10 mM HEPES (Thermo Fisher Scientific, cat. 15630080), 1X GlutaMAX supplement (Thermo Fisher Scientific, cat. 35050061), 0.1 mg/mL primocin (InvivoGen, San Diego, CA, cat. ant-pm-2), 10% defined fetal bovine serum, heat inactivated (HyClone Laboratories Inc., Logan, UT, cat. SH30070.03HI), 50% L-WRN conditioned media (ATCC, cat. CRL-3276), 1.25 mM N-Acetyl-L-cysteine (Sigma-Aldrich, cat. A9165), 10 mM nicotinamide (Sigma-Aldrich, cat. N0636), 1X B-27 supplement (Thermo Fisher Scientific, cat. 17504044), 1X N-2 supplement (Thermo Fisher Scientific, cat. 17502048), 50 ng/mL human EGF (Thermo Fisher Scientific, cat. PHG0311), and 10 microM Y-27632 dihydrochloride (Tocris Bioscience, cat. 1254). The K12877-001-R-J1-PDC line was cultured in 6I media, which includes all 6C/Colon 1B media plus 10 ng/mL human FGF-10 (PeproTech, cat. 100-26), 1 ng/mL human FGF-2 (PeproTech, cat. 100-18B), 1 µM prostaglandin E2 (Tocris Bioscience, cat. 2296), […] hydrocortisone (Sigma-Aldrich, cat. H4001), and […] bovine insulin (Sigma-Aldrich, cat. I6634). The K86415-001-R-J1-PDC line was cultured in 6D media, which includes all 6C/Colon 1B media components minus the L-WRN conditioned media. The 485176-168-R4-J1-PDC was cultured in PANC media, which includes all 6C/Colon 1B media plus 100 ng/mL human FGF-10 (PeproTech, cat. 100-26), 500 nM SB-431542 (Selleckchem, cat. S1067), and 10 nM gastrin (Tocris Bioscience, cat. 3006). […]

[1] = second compound 0.0316 µM, first compound 0.0316 µM
[2] = second compound 0.0316 µM, first compound 0.1 µM
[3] = second compound 0.0316 µM, first compound 0.316 µM
[4] = second compound 0.0316 µM, first compound 1 µM
[5] = second compound 0.0316 µM, first compound 3.16 µM
[6] = second compound 0.0316 µM, first compound 10 µM
[7] = second compound 0.1 µM, first compound 0.0316 µM
[8] = second compound 0.1 µM, first compound 0.1 µM
[9] = second compound 0.1 µM, first compound 0.316 µM
[10] = second compound 0.1 µM, first compound 1 µM
[11] = second compound 0.1 µM, first compound 3.16 µM
[12] = second compound 0.1 µM, first compound 10 µM
[13] = second compound 0.316 µM, first compound 0.0316 µM
[14] = second compound 0.316 µM, first compound 0.1 µM
[15] = second compound 0.316 µM, first compound 0.316 µM
[16] = second compound 0.316 µM, first compound 1 µM
[17] = second compound 0.316 µM, first compound 3.16 µM
[18] = second compound 0.316 µM, first compound 10 µM
[19] = second compound 1 µM, first compound 0.0316 µM
[20] = second compound 1 µM, first compound 0.1 µM
[21] = second compound 1 µM, first compound 0.316 µM
[22] = second compound 1 µM, first compound 1 µM
[23] = second compound 1 µM, first compound 3.16 µM
[24] = second compound 1 µM, first compound 10 µM
[25] = second compound 3.16 µM, first compound 0.0316 µM
[26] = second compound 3.16 µM, first compound 0.1 µM
[27] = second compound 3.16 µM, first compound 0.316 µM
[28] = second compound 3.16 µM, first compound 1 µM
[29] = second compound 3.16 µM, first compound 3.16 µM
[30] = second compound 3.16 µM, first compound 10 µM
[31] = second compound 10 µM, first compound 0.0316 µM
[32] = second compound 10 µM, first compound 0.1 µM
[33] = second compound 10 µM, first compound 0.316 µM
[34] = second compound 10 µM, first compound 1 µM
[35] = second compound 10 µM, first compound 3.16 µM
[36] = second compound 10 µM, first compound 10 µM
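Further: spheroids exposed to compounds for seven days before readout.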
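Wherever viability, T/C is given: 100% = DMSO vehicle control viability.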

In the case of `Cc1nc(N2CCC3(CC2)COC(C)C3N)c(CO)nc1Sc1ccnc(N)c1Cl` (stereo unspecified) + C#Cc1c(F)ccc2cc(O)cc(-c3ncc4c(N5CC6CCC(C5)N6)nc(OCC56CCCN5CC(F)C6)nc4c3F)c12, the IC50 (second compound 0.0316 µM) is reported as greater than 10000 nM, the IC50 (second compound 0.1 µM) is reported as greater than 10000 nM and the IC50 (second compound 0.316 µM) is reported as greater than 10000 nM. It also gave an IC50 (second compound 1 µM) greater than 10000 nM, an IC50 (second compound 3.16 µM) of 313 nM and an IC50 (second compound 10 µM) of 229 nM. For the same compound, the viability, T/C [1] was 116%, the viability, T/C [2] was 125% and the viability, T/C [3] was 79.6%. For the same compound, the viability, T/C [4] was 77.1%, the viability, T/C [5] was 90.7% and the viability, T/C [6] was 104%. It also gave a viability, T/C [7] of 103%, a viability, T/C [8] of 112% and a viability, T/C [9] of 71.6%. It also gave a viability, T/C [10] of 72.8%, a viability, T/C [11] of 92.4% and a viability, T/C [12] of 101%. For the same compound, the viability, T/C [13] was 130%, the viability, T/C [14] was 108% and the viability, T/C [15] was 74.5%. For the same compound, the viability, T/C [16] was 67.8%, the viability, T/C [17] was 90.2% and the viability, T/C [18] was 80.3%. The viability, T/C [19] was 119%, the viability, T/C [20] was 106% and the viability, T/C [21] was 55.8%. For the same compound, the viability, T/C [22] was 53.4%, the viability, T/C [23] was 57.8% and the viability, T/C [24] was 71.1%. The viability, T/C [25] was 108%, the viability, T/C [26] was 94.5% and the viability, T/C [27] was 49.6%. For the same compound, the viability, T/C [28] was 42.8%, the viability, T/C [29] was 46% and the viability, T/C [30] was 57.3%. It also gave a viability, T/C [31] of 80.9%, a viability, T/C [32] of 66.1% and a viability, T/C [33] of 43.5%. The viability, T/C [34] was 35.9%, the viability, T/C [35] was 34.6% and the viability, T/C [36] was 33%.
For `NC1c2ccccc2OC12CCN(c1cnc3c(N4CCCc5ncccc54)n[nH]c3n1)CC2` (stereo unspecified) + C#Cc1c(F)ccc2cc(O)cc(-c3ncc4c(N5CC6CCC(C5)N6)nc(OCC56CCCN5CC(F)C6)nc4c3F)c12, the IC50 (second compound 0.0316 µM) was greater than 10000 nM, the IC50 (second compound 0.1 µM) was greater than 10000 nM and the IC50 (second compound 0.316 µM) was greater than 10000 nM. The IC50 (second compound 1 µM) was 838 nM, the IC50 (second compound 3.16 µM) was 283 nM and the IC50 (second compound 10 µM) was 88.2 nM. The viability, T/C [1] was 85.3%, the viability, T/C [2] was 107% and the viability, T/C [3] was 70.4%. It also gave a viability, T/C [4] of 58.8%, a viability, T/C [5] of 67.3% and a viability, T/C [6] of 73.1%. The viability, T/C [7] was 91.6%, the viability, T/C [8] was 101% and the viability, T/C [9] was 74.4%. For the same compound, the viability, T/C [10] was 58.1%, the viability, T/C [11] was 64.7% and the viability, T/C [12] was 78.4%. For the same compound, the viability, T/C [13] was 104%, the viability, T/C [14] was 105% and the viability, T/C [15] was 62%. For the same compound, the viability, T/C [16] was 51.2%, the viability, T/C [17] was 56.2% and the viability, T/C [18] was 57.4%. The viability, T/C [19] was 97.9%, the viability, T/C [20] was 88.2% and the viability, T/C [21] was 53.3%. For the same compound, the viability, T/C [22] was 46.4%, the viability, T/C [23] was 50.3% and the viability, T/C [24] was 51.3%. The viability, T/C [25] was 82.6%, the viability, T/C [26] was 75.3% and the viability, T/C [27] was 47.5%. The viability, T/C [28] was 36.4%, the viability, T/C [29] was 32.6% and the viability, T/C [30] was 40.4%. For the same compound, the viability, T/C [31] was 63%, the viability, T/C [32] was 48.4% and the viability, T/C [33] was 29.6%. It also gave a viability, T/C [34] of 28.9%, a viability, T/C [35] of 28% and a viability, T/C [36] of 25.8%.
Compound `Nc1ccn(C2OC(CO)C(O)C2(F)F)c(=O)n1` (stereo unspecified) + C#Cc1c(F)ccc2cc(O)cc(-c3ncc4c(N5CC6CCC(C5)N6)nc(OCC56CCCN5CC(F)C6)nc4c3F)c12 has an IC50 (second compound 0.0316 µM) of 92.8 nM, an IC50 (second compound 0.1 µM) of 73.8 nM and an IC50 (second compound 0.316 µM) of 273 nM. It also gave an IC50 (second compound 1 µM) of 63.3 nM, an IC50 (second compound 3.16 µM) of 37.5 nM and an IC50 (second compound 10 µM) of 30.3 nM. The viability, T/C (second compound 0.0316 µM, first compound 0.00316 µM) was 101%, the viability, T/C (second compound 0.0316 µM, first compound 0.01 µM) was 123% and the viability, T/C [1] was 80.8%. The viability, T/C [2] was 53.5%, the viability, T/C [3] was 46.7% and the viability, T/C [4] was 43.4%. It also gave a viability, T/C (second compound 0.1 µM, first compound 0.00316 µM) of 112%, a viability, T/C (second compound 0.1 µM, first compound 0.01 µM) of 130% and a viability, T/C [7] of 64%. For the same compound, the viability, T/C [8] was 54.6%, the viability, T/C [9] was 42.8% and the viability, T/C [10] was 37.5%. The viability, T/C (second compound 0.316 µM, first compound 0.00316 µM) was 122%, the viability, T/C (second compound 0.316 µM, first compound 0.01 µM) was 133% and the viability, T/C [13] was 54.9%. The viability, T/C [14] was 61.1%, the viability, T/C [15] was 46.1% and the viability, T/C [16] was 41.1%. For the same compound, the viability, T/C (second compound 1 µM, first compound 0.00316 µM) was 116%, the viability, T/C (second compound 1 µM, first compound 0.01 µM) was 110% and the viability, T/C [19] was 58.2%. The viability, T/C [20] was 46%, the viability, T/C [21] was 47.8% and the viability, T/C [22] was 39%. It also gave a viability, T/C (second compound 3.16 µM, first compound 0.00316 µM) of 117%, a viability, T/C (second compound 3.16 µM, first compound 0.01 µM) of 99.2% and a viability, T/C [25] of 51.1%. The viability, T/C [26] was 43.5%, the viability, T/C [27] was 41% and the viability, T/C [28] was 45.7%. For the same compound, the viability, T/C (second compound 10 µM, first compound 0.00316 µM) was 82%, the viability, T/C (second compound 10 µM, first compound 0.01 µM) was 85.8% and the viability, T/C [31] was 48.6%. For the same compound, the viability, T/C [32] was 47%, the viability, T/C [33] was 48.8% and the viability, T/C [34] was 44.9%.
